# Measured values taken from US9873690B2, “3-indol substituted derivatives, pharmaceutical compositions and methods for use” (Pfizer Inc., priority 2015, dated 2018).
# Target: T1, hTDO2 (Homo sapiens, UniProt P48775)
# T1 construct: endogenous in cells; host or cells: A172 human brain glioblastoma cells (ATCC CRL-1620)
# Test: Cellular assay for TDO2 activity determination in A172 cells
# Format: cell-based
# Details: human glioblastoma A172 cells naturally expressing hTDO2; overnight incubation; kynurenine by absorbance at 480 nm
# Method: The compounds of formula I inhibit the activity of human TDO2 in cells that constitutively express TDO2, such as A172 cells. A172 is a cell line derived from human brain glioblastoma cells. The cells are available from the American Type Culture Collection (ATCC®) as CRL-1620™.
# The assay (adapted from Pilotte L et al., Proc Natl Acad Sci USA, 2012, 109(7), 2497-502) was performed in 96-well flat bottom plates seeded with human glioblastoma A172 cells, naturally expressing hTDO2 (prepared as described in Tilman et al., Mol Cancer, 2007, 17(6), 80), at a concentration of 1.25×10^4 cells/well in a final volume of 200 μL. To determine TDO, the cells were incubated overnight at 37° C. at 5% CO2 in IMDM (Invitrogen) supplemented with 2% FBS and 2% penicillin/streptomycin in the presence of the compounds of the present invention, at different concentrations.
# The plates were then centrifuged 5 min at 1000 rpm, and 100 μL of the supernatant were collected in a conical plate, 30 μL of TCA 30% were added and a further centrifuged at 3000×g for 10 minutes. 100 μL of the supernatant were collected in a flat bottomed plate and 100 μL of 2% (w/v) 4-(dimethylamino)-benzaldehyde in acetic acid and incubated for 5 min at room temperature. Kynurenine concentrations were determined by measuring the absorbance at 480 nm. A standard curve was made with pure kynurenine. The TDO activity was measured as described above using ten serial concentrations of the compounds of the present invention. Data were fitted using the Prism™ software (GraphPad Software, Inc.) using standard parameters.
# The biological activity of representative compounds in human brain glioblastoma cells as determined in the above-referenced assay is summarized in the following table: […]
# T1 sequence (P48775 whole entry): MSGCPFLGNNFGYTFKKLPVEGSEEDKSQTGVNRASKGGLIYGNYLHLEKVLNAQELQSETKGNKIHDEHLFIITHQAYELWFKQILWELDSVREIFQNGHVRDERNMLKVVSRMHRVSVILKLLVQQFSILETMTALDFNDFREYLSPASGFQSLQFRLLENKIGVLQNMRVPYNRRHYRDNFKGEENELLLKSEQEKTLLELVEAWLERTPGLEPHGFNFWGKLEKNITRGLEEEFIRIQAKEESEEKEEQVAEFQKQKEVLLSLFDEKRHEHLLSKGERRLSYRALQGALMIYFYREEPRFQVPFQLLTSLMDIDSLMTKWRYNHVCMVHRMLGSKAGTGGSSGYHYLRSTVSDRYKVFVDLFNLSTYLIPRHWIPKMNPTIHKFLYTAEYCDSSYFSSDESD
row,SMILES,IC50
1,"COC(=O)C1NS(=O)(=O)c2ccc(-c3c[nH]c4cc(F)ccc34)cc21 (racemic) [Example 14, methyl 5-(6-fluoro-1H-indol-3-yl)-2,3-dihydrobenzo-[d]isothiazole-3-carboxylate 1,1-dioxide]",8.09 µM
2,"CC1c2cc(-c3c[nH]c4cc(F)ccc34)ccc2S(=O)(=O)N1C[C@H](O)CO (single isomer, unassigned) [Example 95]",0.114 µM
3,"CNC(=O)C(N)CN1C(C)c2cc(-c3c[nH]c4cc(F)ccc34)ccc2S1(=O)=O (single isomer, unassigned) [Example 101]",0.366 µM
4,"CNCC1NS(=O)(=O)c2ccc(-c3c[nH]c4cc(F)ccc34)cc21 (single isomer, unassigned) [Example 137, 5-(6-fluoro-1H-indol-3-yl)-3-((methylamino)methyl)-2,3-dihydrobenzo[d]isothiazole 1,1-dioxide]",0.066 µM
5,"CCC1NS(=O)(=O)c2ccc(-c3c[nH]c4cc(F)ccc34)cc21 (single isomer, unassigned; (+)) [Example 3, (+)-3-ethyl-5-(6-fluoro-1H-indol-3-yl)-2,3-dihydrobenzo[d]-isothiazole 1,1-dioxide]",0.064 µM
6,"CC(C)C1NS(=O)(=O)c2ccc(-c3c[nH]c4cc(F)ccc34)cc21 (single isomer, unassigned; (+)) [Example 8, (+)-5-(6-fluoro-1H-indol-3-yl)-3-isopropyl-2,3-dihydrobenzo[d]isothiazole 1,1-dioxide]",0.047 µM
7,"O=S1(=O)NC(CO)c2cc(-c3c[nH]c4cc(F)ccc34)ccc21 (single isomer, unassigned; (+)) [Example 13, (+)-5-(6-fluoro-1H-indol-3-yl)-3-(hydroxymethyl)-2,3-dihydrobenzo[d]isothiazole 1,1-dioxide]",0.043 µM
8,"NC(=O)C1NS(=O)(=O)c2ccc(-c3c[nH]c4cc(F)ccc34)cc21 (single isomer, unassigned; (+)) [Example 16, (+)-5-(6-fluoro-1H-indol-3-yl)-2,3-dihydrobenzo[d]-isothiazole-3-carboxamide 1,1-dioxide]",1.38 µM
9,"CNC(=O)C1NS(=O)(=O)c2ccc(-c3c[nH]c4cc(F)ccc34)cc21 (single isomer, unassigned; (+)) [Example 18, (+)-5-(6-fluoro-1H-indol-3-yl)-N-methyl-2,3-dihydrobenzo[d]isothiazole-3-carboxamide 1,1-dioxide]",5 µM
10,"COC(=O)NCC1NS(=O)(=O)c2ccc(-c3c[nH]c4cc(F)ccc34)cc21 (single isomer, unassigned; (+)) [Example 22, (+)-methyl ((5-(6-fluoro-1H-indol-3-yl)-1,1-dioxido-2,3-dihydrobenzo[d]isothiazol-3-yl)methyl)carbamate]",0.647 µM
11,"CC(=O)NCC1NS(=O)(=O)c2ccc(-c3c[nH]c4cc(F)ccc34)cc21 (single isomer, unassigned; (+)) [Example 24, (+)-N-((5-(6-fluoro-1H-indol-3-yl)-1,1-dioxido-2,3-dihydrobenzo[d]isothiazol-3-yl)methyl)acetamide]",0.255 µM
12,"CN(C)CC1NS(=O)(=O)c2ccc(-c3c[nH]c4cc(F)ccc34)cc21 (single isomer, unassigned; (+)) [Example 26, (+)-3-((dimethylamino)methyl)-5-(6-fluoro-1H-indol-3-yl)-2,3-dihydrobenzo[d]isothiazole 1,1-dioxide]",0.437 µM
13,"CC(=O)N(C)CC1NS(=O)(=O)c2ccc(-c3c[nH]c4cc(F)ccc34)cc21 (single isomer, unassigned; (+)) [Example 27, (+)-N-((5-(6-fluoro-1H-indol-3-yl)-1,1-dioxido-2,3-dihydrobenzo[d]isothiazol-3-yl)methyl)-N-methylacetamide]",0.226 µM
14,"O=S1(=O)NC(CCO)c2cc(-c3c[nH]c4cc(F)ccc34)ccc21 (single isomer, unassigned; (+)) [Example 30, (+)-5-(6-fluoro-1H-indol-3-yl)-3-(2-hydroxyethyl)-2,3-dihydrobenzo[d]isothiazole 1,1-dioxide]",0.034 µM
15,"C[S+]([O-])CCN1Cc2cc(-c3c[nH]c4cc(F)ccc34)ccc2S1(=O)=O (single isomer, unassigned; (+)) [Example 42, (+)-5-(6-fluoro-1H-indol-3-yl)-2-(2-(methylsulfinyl)ethyl)-2,3-dihydrobenzo[d]isothiazole 1,1-dioxide]",0.142 µM

# The remaining lines, values ahead:
row,IC50,SMILES
1,0.027 µM,"C[C@H]1NS(=O)(=O)c2ccc(-c3c[nH]c4cc(F)ccc34)cc21 (single isomer, unassigned) [Example 1, (+)-5-(6-fluoro-1H-indol-3-yl)-3-methyl-2,3-dihydro-1,2-benzothiazole 1,1-dioxide]"
2,0.11 µM,"C[C@@H]1NS(=O)(=O)c2ccc(-c3c[nH]c4cc(F)ccc34)cc21 (single isomer, unassigned) [Example 2, (−)-5-(6-fluoro-1H-indol-3-yl)-3-methyl-2,3-dihydro-1,2-benzothiazole 1,1-dioxide]"
3,0.313 µM,"CC1c2cc(-c3c[nH]c4cc(F)ccc34)ccc2S(=O)(=O)N1CC1(C)COC(=O)N1 (single isomer, unassigned) [Example 87]"
4,0.269 µM,"CC1c2cc(-c3c[nH]c4cc(F)ccc34)ccc2S(=O)(=O)N1C[C@@H](O)CO (single isomer, unassigned) [Example 93]"
5,0.059 µM,"CNC(=O)C(C)N1C(C)c2cc(-c3c[nH]c4cc(F)ccc34)ccc2S1(=O)=O (single isomer, unassigned) [Example 147, 2-(5-(6-fluoro-1H-indol-3-yl)-3-methyl-1,1-dioxidobenzo[d]isothiazol-2(3H)-yl)-N-methylpropanamide]"
6,0.367 µM,"CCCC1NS(=O)(=O)c2ccc(-c3c[nH]c4cc(F)ccc34)cc21 (single isomer, unassigned; (+)) [Example 6, (+)-5-(6-fluoro-1H-indol-3-yl)-3-propyl-2,3-dihydrobenzo[d]isothiazole 1,1-dioxide]"
7,0.24 µM,"O=S1(=O)NC(C2CC2)c2cc(-c3c[nH]c4cc(F)ccc34)ccc21 (single isomer, unassigned; (+)) [Example 10, (+)-3-cyclopropyl-5-(6-fluoro-1H-indol-3-yl)-2,3-dihydrobenzo[d]isothiazole 1,1-dioxide]"
8,0.311 µM,"NCC1NS(=O)(=O)c2ccc(-c3c[nH]c4cc(F)ccc34)cc21 (single isomer, unassigned; (+)) [Example 19, (+)-3-(aminomethyl)-5-(6-fluoro-1H-indol-3-yl)-2,3-dihydrobenzo[d]isothiazole 1,1-dioxide]"
9,0.071 µM,"CNC(=O)CCN1C(C)c2cc(-c3c[nH]c4cc(F)ccc34)ccc2S1(=O)=O (single isomer, unassigned; (+)) [Example 45, (+)-3-(5-(6-fluoro-1H-indol-3-yl)-3-methyl-1,1-dioxidobenzo[d]-isothiazol-2(3H)-yl)-N-methylpropanamide]"
10,0.199 µM,"CC1c2cc(-c3c[nH]c4cc(F)ccc34)ccc2S(=O)(=O)N1CCC(N)=O (single isomer, unassigned; (+)) [Example 47, (+)-3-(5-(6-fluoro-1H-indol-3-yl)-3-methyl-1,1-dioxidobenzo[d]isothiazol-2(3H)-yl)propanamide]"
